In US20230104936A1, “TRPML MODULATORS” (Casma Therapeutics, Inc., priority 2019, published 2023):

Tested on: TFEB
Assay: TFEB nuclear translocation assay, HeLa wt cells
Type: cell-based
Details: 2 hrs compound treatment, Table 1 does not say HeLa wt or TRPML1 KO
Method in brief: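 HeLa wt cells were treated with compound for 2 hrs at 37° C, then fixed in 4% PFA and immunostained for TFEB with an Alexa 488 secondary and Hoechst nuclear counterstain. Automated epifluorescence imaging at ×20 gave the ratio of nuclear TFEB intensity to a perinuclear ring region, from which AC50 was derived.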

SMILES	AC50 (Homo sapiens, HeLa, 2 h)	AC50
CN(C)S(=O)(=O)c1ccc(S(=O)(=O)Nc2ccccc2N2CCC(c3ccc(C(=O)O)cc3)CC2)cc1 [Compound A-267, 4-(1-{2-[4-(dimethylsulfamoyl)benzenesulfonamido]phenyl}piperidin-4-yl)benzoic acid]	≥ 10000 nM	–
CN(C)S(=O)(=O)c1ccc(S(=O)(=O)Nc2ccccc2N2CC=C(c3ccc(Cl)cc3F)CC2)cc1 [Compound A-32, N4-{2-[4-(4-chloro-2-fluorophenyl)-1,2,3,6-tetrahydropyridin-1-yl]phenyl}-N1,N1-dimethylbenzene-1,4-disulfonamide]	≤ 2000 nM	–
CN(C)S(=O)(=O)c1ccc(S(=O)(=O)Nc2ccccc2N2CCC(C)(CO)CC2)cc1 [Compound A-436, N4-{2-[4-(hydroxymethyl)-4-methylpiperidin-1-yl]phenyl}-N1,N1-dimethylbenzene-1,4-disulfonamide]	2010 to 8000 nM	–
CN(C)S(=O)(=O)c1ccc(S(=O)(=O)Nc2ccccc2N2CCC(COC(F)(F)F)CC2)cc1 [Compound A-696, N1,N1-dimethyl-N4-(2-{4-[(trifluoromethoxy)methyl]piperidin-1-yl}phenyl)benzene-1,4-disulfonamide]	≤ 2000 nM	–
CNC(=O)c1ccc(S(=O)(=O)Nc2ccccc2N2CCC(c3ccc(Cl)cc3F)CC2)cc1 [Compound A-48, 4-({2-[4-(4-chloro-2-fluorophenyl)piperidin-1-yl]phenyl}sulfamoyl)-N-methylbenzamide]	≥ 10000 nM	–
CC(c1cccc(F)c1N1CCC(CN2CCC(F)(F)CC2)CC1)S(=O)(=O)c1ccc(S(=O)(=O)N(C)C)cc1 (stereo not drawn) [Compound A-803, 4-((1-(2-(4-((4,4-difluoropiperidin-1-yl)methyl)piperidin-1-yl)-3-fluorophenyl)ethyl)sulfonyl)-N,N-dimethylbenzenesulfonamide]	–	≤ 2000 nM
COc1ccc(S(=O)(=O)Nc2ccccc2N2CC(Oc3ccc(F)cc3F)C2)cc1 [Compound A-200, N-{2-[3-(2,4-difluorophenoxy)azetidin-1-yl]phenyl}-4-methoxybenzene-1-sulfonamide]	2010 to 8000 nM	–
CP(C)(=O)c1ccc(S(=O)(=O)Nc2ccccc2N2CCN(c3ccc(F)cc3F)CC2)cc1 [Compound A-165, N-{2-[4-(2,4-difluorophenyl)piperazin-1-yl]phenyl}-4-(dimethylphosphoryl)benzene-1-sulfonamide]	2010 to 8000 nM	–
COc1ccc(S(=O)(=O)Nc2ccncc2N2CCC(c3ncc(F)cc3F)CC2)cc1 [Compound A-192, N-{3-[4-(3,5-difluoropyridin-2-yl)piperidin-1-yl]pyridin-4-yl}-4-methoxybenzene-1-sulfonamide]	≥ 10000 nM	–
COCC1(C)CCN(c2ccccc2NS(=O)(=O)Cc2cccc(OC)c2)CC1 [Compound A-596, N-{2-[4-(methoxymethyl)-4-methylpiperidin-1-yl]phenyl}-1-(3-methoxyphenyl)methanesulfonamide]	2010 to 8000 nM	–
CC1(C)CC2(CCN(c3ccccc3NS(=O)(=O)c3ccc(C4CC4(F)F)cc3)CC2)CO1 (stereo not drawn) [Compound A-718, 4-(2,2-difluorocyclopropyl)-N-(2-{3,3-dimethyl-2-oxa-8-azaspiro[4.5]decan-8-yl}phenyl)benzene-1-sulfonamide]	≤ 2000 nM	–
O=S(=O)(Nc1cccc(Cl)c1N1CCCCC1)c1ccc(C2(C(F)(F)F)N=N2)cc1 [Compound A-749, N-[3-chloro-2-(piperidin-1-yl)phenyl]-4-[3-(trifluoromethyl)-3H-diazirin-3-yl]benzene-1-sulfonamide]	2010 to 8000 nM	–
CS(=N)(=O)c1ccc(S(=O)(=O)Nc2ccccc2N2CCC(c3c(F)cccc3F)CC2)cc1 (stereo not drawn) [Compound A-166, N-{2-[4-(2,6-difluorophenyl)piperidin-1-yl]phenyl}-4-[imino(methyl)oxo-λ^6-sulfanyl]benzene-1-sulfonamide]	2010 to 8000 nM	–
Cc1nocc1S(=O)(=O)Nc1ccccc1N1CCN(c2ccc(Cl)cc2F)CC1 [Compound A-35, N-{2-[4-(4-chloro-2-fluorophenyl)piperazin-1-yl]phenyl}-3-methyl-1,2-oxazole-4-sulfonamide]	≥ 10000 nM	–
O=S(=O)(Nc1ccccc1N1CCN(c2ccc(F)cc2F)CC1)c1ccc(S(=O)(=O)C(F)(F)F)cc1 [Compound A-174, N-{2-[4-(2,4-difluorophenyl)piperazin-1-yl]phenyl}-4-trifluoromethanesulfonylbenzene-1-sulfonamide]	2010 to 8000 nM	–
CN(C)S(=O)(=O)c1ccc(S(=O)(=O)Nc2ccccc2N2CCC(c3cccc(C(=O)O)c3)CC2)cc1 [Compound A-266, 3-(1-{2-[4-(dimethylsulfamoyl)benzenesulfonamido]phenyl}piperidin-4-yl)benzoic acid]	≥ 10000 nM	–
CC1(C)CC2(CCN(c3ccccc3NS(=O)(=O)c3ccc4c(c3)CCC(C(F)F)O4)CC2)CO1 (stereo not drawn) [Compound A-690, 2-(difluoromethyl)-N-(2-{3,3-dimethyl-2-oxa-8-azaspiro[4.5]decan-8-yl}phenyl)-3,4-dihydro-2H-1-benzopyran-6-sulfonamide]	2010 to 8000 nM	–

SMILES	AC50 (Homo sapiens, HeLa, 2 h)	AC50
C[C@@H]1COC[C@@H](C)N1CC1CCN(c2c(F)cccc2NS(=O)(=O)c2ccc(S(=N)(=O)N(C)C)cc2)CC1 (stereo partly drawn) [Compound A-836, N-(2-(4-(((3S,5S)-3,5-dimethylmorpholino)methyl)piperidin-1-yl)-3-fluorophenyl)-4-(N,N-dimethylsulfamidimidoyl)benzenesulfonamide]	–	2010 to 8000 nM
C[C@@H]1COC[C@H](C)N1CC1CCN(c2c(F)cccc2NS(=O)(=O)c2ccc(S(=O)(=O)N(C)C)cc2)CC1 [Compound A-824, N4-[2-(4-{[(3R,5S)-3,5-dimethylmorpholin-4-yl]methyl}piperidin-1-yl)-3-fluorophenyl]-N1,N1-dimethylbenzene-1,4-disulfonamide]	≤ 2000 nM	–
COC1(C(=O)N2CCN(c3ccccc3NS(=O)(=O)c3ccc(S(=O)(=O)N(C)C)cc3)CC2)CCC1 [Compound A-458, N4-{2-[4-(1-methoxycyclobutanecarbonyl)piperazin-1-yl]phenyl}-N1,N1-dimethylbenzene-1,4-disulfonamide]	2010 to 8000 nM	–
CN1CC2(CCN(c3ccccc3NS(=O)(=O)c3ccc(S(C)(=O)=O)cc3)CC2)c2ccc(F)cc21 [Compound A-251, N-(2-{6-fluoro-1-methyl-1,2-dihydrospiro[indole-3,4′-piperidin]-1′-yl}phenyl)-4-methanesulfonylbenzene-1-sulfonamide]	≤ 2000 nM	–
O=S(=O)(Nc1ccccc1N1CCC(c2ccc(Cl)cc2F)CC1)c1ccccc1 [Compound A-42, N-{2-[4-(4-chloro-2-fluorophenyl)piperidin-1-yl]phenyl}benzenesulfonamide]	≥ 10000 nM	–
C[C@@H]1CN(CC2CCCN(c3c(F)cccc3NS(=O)(=O)c3ccc(S(=O)(=O)N(C)C)cc3)CC2)C[C@H](C)O1 (stereo partly drawn) [Compound A-918, N4-[2-(4-{[(2R,6S)-2,6-dimethylmorpholin-4-yl]methyl}azepan-1-yl)-3-fluorophenyl]-N1,N1-dimethylbenzene-1,4-disulfonamide]	≤ 2000 nM	–
C[C@H]1COC[C@H](C)N1CC1CCN(c2c(F)cccc2NS(=O)(=O)c2ccc(S(C)(=O)=O)cc2)CC1 (relative stereo) [Compound A-838, trans-N-(2-(4-((3,5-dimethylmorpholino)methyl)piperidin-1-yl)-3-fluorophenyl)-4-(methylsulfonyl)benzenesulfonamide]	≤ 2000 nM	–
COCC1(C)CCN(c2ccccc2NS(=O)(=O)c2ccc(C)c(F)c2)CC1 [Compound A-617, 3-fluoro-N-{2-[4-(methoxymethyl)-4-methylpiperidin-1-yl]phenyl}-4-methylbenzene-1-sulfonamide]	2010 to 8000 nM	–
C[C@@H]1CN(CC2CCN(c3c(F)cccc3NS(=O)(=O)c3ccc(S(=N)(=O)N(C)C)cc3)CC2)C[C@H](C)O1 (stereo partly drawn) [Compound A-769, N-(2-(4-(((2S,6R)-2,6-dimethylmorpholino)methyl)piperidin-1-yl)-3-fluorophenyl)-4-(N,N-dimethylsulfamimidoyl)benzene-sulfonamide]	≤ 2000 nM	–
CC(c1cccc(F)c1N1CCCCC1)S(=O)(=O)c1ccc(S(=O)(=O)N(C)C)cc1 (single isomer, unassigned) [Compound A-911, 4-((1-(3-fluoro-2-(piperidin-1-yl)phenyl)ethyl)sulfonyl)-N,N-dimethylbenzenesulfonamide]	≤ 2000 nM	–
CN(C)S(=O)(=O)c1ccc(S(=O)(=O)Nc2ccccc2N2CCC(C(=O)NC(C)(C)C)CC2)cc1 [Compound A-323, N-tert-butyl-1-{2-[4-(dimethylsulfamoyl)benzenesulfonamido]phenyl}piperidine-4-carboxamide]	2010 to 8000 nM	–
O=S(=O)(Nc1ccccc1N1CCC(c2ccc(Cl)cc2F)CC1)c1ccc(F)cc1F [Compound A-87, N-{2-[4-(4-chloro-2-fluorophenyl)piperidin-1-yl]phenyl}-2,4-difluorobenzene-1-sulfonamide]	≥ 10000 nM	–
CC(C)(C)C(=O)N1CCN(c2ccccc2NS(=O)(=O)c2ccc(C(F)(F)F)cc2)CC1 [Compound A-527, N-{2-[4-(2,2-dimethylpropanoyl)piperazin-1-yl]phenyl}-4-(trifluoromethyl)benzene-1-sulfonamide]	2010 to 8000 nM	–
COCC1(C)CCN(c2ccccc2NS(=O)(=O)Cc2ccc(C)cc2)CC1 [Compound A-578, N-{2-[4-(methoxymethyl)-4-methylpiperidin-1-yl]phenyl}-1-(4-methylphenyl)methanesulfonamide]	2010 to 8000 nM	–
C[S+]([O-])c1ccc(S(=O)(=O)Nc2ccccc2N2CCC(c3ccc(F)cc3F)CC2)cc1 (stereo not drawn) [Compound A-160, N-{2-[4-(2,4-difluorophenyl)piperidin-1-yl]phenyl}-4-methanesulfinylbenzene-1-sulfonamide]	2010 to 8000 nM	–
C[C@@H]1CN(CC2CCN(c3c(Br)cccc3NS(=O)(=O)c3ccc(S(=O)(=O)N(C)C)cc3)CC2)C[C@H](C)O1 [Compound A-864, N4-[3-bromo-2-(4-{[(2R,6S)-2,6-dimethylmorpholin-4-yl]methyl}piperidin-1-yl)phenyl]-N1,N1-dimethylbenzene-1,4-disulfonamide]	≤ 2000 nM	–
